# Measurements published in the supplement of paper PMC10307832.
# Assays:
# Assay in all cases: relative viability (nuclei count vs DMSO), 5 days (fraction); higher = more cells survive
# Sorafenib + Pemetrexed = compound: CNC(=O)c1cc(Oc2ccc(NC(=O)Nc3ccc(Cl)c(C(F)(F)F)c3)cc2)ccn1 [Sorafenib] + Nc1nc2[nH]cc(CCc3ccc(C(=O)N[C@@H](CCC(=O)O)C(=O)O)cc3)c2c(=O)[nH]1 [Pemetrexed] (partner 0.2 µM)
# Procedure, shortened: (§1)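 Nuclei were stained with Hoechst during a one-step fixation (final 0.05% Triton X-100, 1% formaldehyde, 1 ug/ml Hoechst) carried out 5 days after dosing, then counted on 4× images. The cells, lung cancer lines in 1536-well plates, had been dosed by pin tool the day after seeding with one drug alone or a fixed anchor-drug dose plus five library-drug doses (not always all listed) in √10 steps. Relative viability is the nuclei count in treated wells divided by that in vehicle wells, and each value is the median of duplicate plates.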
# Sorafenib + Trametinib = compound: CNC(=O)c1cc(Oc2ccc(NC(=O)Nc3ccc(Cl)c(C(F)(F)F)c3)cc2)ccn1 [Sorafenib] + CC(=O)Nc1cccc(-n2c(=O)n(C3CC3)c(=O)c3c(Nc4ccc(I)cc4F)n(C)c(=O)c(C)c32)c1 [Trametinib] (partner 0.02 µM)
# Procedure, shortened: as §1
# Sorafenib + Pictilisib = compound: CNC(=O)c1cc(Oc2ccc(NC(=O)Nc3ccc(Cl)c(C(F)(F)F)c3)cc2)ccn1 [Sorafenib] + CS(=O)(=O)N1CCN(Cc2cc3nc(-c4cccc5[nH]ncc45)nc(N4CCOCC4)c3s2)CC1 [Pictilisib] (partner 1 µM)
# Procedure, shortened: as §1
# Sorafenib + Phenformin = compound: CNC(=O)c1cc(Oc2ccc(NC(=O)Nc3ccc(Cl)c(C(F)(F)F)c3)cc2)ccn1 [Sorafenib] + N=C(N)NC(=N)NCCc1ccccc1 [Phenformin] (partner 250 µM)
# Procedure, shortened: as §1
# Sorafenib + AZD7762 = compound: CNC(=O)c1cc(Oc2ccc(NC(=O)Nc3ccc(Cl)c(C(F)(F)F)c3)cc2)ccn1 [Sorafenib] + NC(=O)Nc1cc(-c2cccc(F)c2)sc1C(=O)N[C@H]1CCCNC1 [AZD7762] (partner 0.2 µM)
# Procedure, shortened: as §1
Cell Line,relative viability (Sorafenib + Pemetrexed; first compound 0.08 µM),relative viability (Sorafenib + Pemetrexed; first compound 0.253 µM),relative viability (Sorafenib + Pemetrexed; first compound 2.53 µM),relative viability (Sorafenib + Pemetrexed; first compound 8 µM),relative viability (Sorafenib + Trametinib; first compound 0.08 µM),relative viability (Sorafenib + Trametinib; first compound 0.253 µM),relative viability (Sorafenib + Trametinib; first compound 2.53 µM),relative viability (Sorafenib + Trametinib; first compound 8 µM),relative viability (Sorafenib + Pictilisib; first compound 0.08 µM),relative viability (Sorafenib + Pictilisib; first compound 0.253 µM),relative viability (Sorafenib + Pictilisib; first compound 2.53 µM),relative viability (Sorafenib + Pictilisib; first compound 8 µM),relative viability (Sorafenib + Phenformin; first compound 0.08 µM),relative viability (Sorafenib + Phenformin; first compound 0.253 µM),relative viability (Sorafenib + Phenformin; first compound 2.53 µM),relative viability (Sorafenib + Phenformin; first compound 8 µM),relative viability (Sorafenib + AZD7762; first compound 0.08 µM),relative viability (Sorafenib + AZD7762; first compound 0.253 µM),relative viability (Sorafenib + AZD7762; first compound 2.53 µM),relative viability (Sorafenib + AZD7762; first compound 8 µM)
NCI-H2405,1.12,0.902,1.13,0.982,0.784,0.461,0.413,0.324,0.539,0.39,0.363,0.293,0.421,0.334,0.405,0.259,0.819,0.597,0.681,0.63
NCI-H3122,0.209,0.194,0.222,0.167,0.234,0.208,0.176,0.129,0.762,0.671,0.604,0.234,0.39,0.326,0.346,0.212,0.905,0.905,1.08,0.965
PC-3 [JPC-3],1.11,0.856,1.34,1.2,,0.712,0.773,0.718,0.813,0.659,0.752,0.679,0.512,0.458,0.492,0.453,0.929,0.711,1.07,0.948
PC-14,0.133,0.137,0.123,0.102,0.883,0.694,0.567,0.158,0.748,0.542,0.625,0.344,0.632,0.429,0.696,0.591,0.365,0.256,0.444,0.303
RERF-LC-KJ,0.485,0.458,0.524,0.417,0.753,,0.86,0.65,0.604,0.578,0.612,0.438,0.437,0.435,0.463,0.394,1.09,0.781,0.941,0.897
